Data on twelve compounds can be found in US5434154A, “Antimigraine 4-pyrimidinyl and pyridinyl derivatives of indol-3yl-alkylpiperazines” (Bristol-Myers Squibb Company, priority 1994, dated 1995).

Counter-ions that a name gives are not always drawn.

One series has as its system migraine. To be noted: cited from earlier work.
The next series deals with T1, 5-HT1D (Bos taurus, UniProt F1MGM3).
T1 construct: methodology such as that described by Heuring and Peroutka, J. Neurosci., 7(3), 1987, 894-903; with only minor modifications; from tissue
Description: 5-HT1D binding (displacement of tritiated serotonin). To be noted: in vitro, Table 2. Here is the method: Determination of 5-HT1D binding properties was accomplished employing methodology such as that described by Heuring and Peroutka, J. Neurosci., 7(3), 1987, 894-903; with only minor modifications. In vitro IC50 (nM) test values were determined for the compounds of this invention employing tritiated serotonin.

The next series has as its system migraine sufferers. To be noted: cited from earlier work.

T1 sequence (F1MGM3 1-403): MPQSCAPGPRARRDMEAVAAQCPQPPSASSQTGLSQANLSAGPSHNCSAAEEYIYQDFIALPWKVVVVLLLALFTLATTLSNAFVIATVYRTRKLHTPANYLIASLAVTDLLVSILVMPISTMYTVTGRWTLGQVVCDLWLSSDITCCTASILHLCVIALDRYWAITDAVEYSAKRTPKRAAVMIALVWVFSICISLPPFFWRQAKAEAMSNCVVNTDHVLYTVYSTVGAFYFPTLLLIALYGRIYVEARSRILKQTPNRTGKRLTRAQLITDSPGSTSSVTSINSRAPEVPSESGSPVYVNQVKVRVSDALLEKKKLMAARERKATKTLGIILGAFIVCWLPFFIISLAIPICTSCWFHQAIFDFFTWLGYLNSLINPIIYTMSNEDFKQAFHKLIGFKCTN

As to `CC[C@@H](CO)NC(=O)[C@@H]1C=C2c3cccc4c3c(cn4C)C[C@H]2N(C)C1` [methysergide], the side-effects result with migraine (long term usage) is “severe use-limiting side-effects with long term usage”.

On to `COc1cnccc1N1CCN(CCCc2c[nH]c3ccccc23)CC1` [Example 62, 1-[3-(1H-indol-3-yl)propyl]-4-(3-methoxy-4-pyridinyl)piperazine dihydrochloride], for which, on 5-HT1D, the IC50 (commonly the point on the concentration scale where inhibition reaches its midpoint) is 10 nM.

Turning to `COC(=O)[C@H]1[C@H]2C[C@@H]3c4[nH]c5cc(OC)ccc5c4CCN3C[C@H]2C[C@@H](OC(=O)c2cc(OC)c(OC)c(OC)c2)[C@@H]1OC` [reserpine], the “induction of headache in migraine sufferers” value in the series with migraine sufferers (in vivo) was “induces a typical migraine-type headache in migraine sufferers”. Also, the plasma serotonin entry with migraine sufferers (intramuscular injection) is reported as “lowers plasma serotonin”.

In the case of `CN1C[C@H](C(=O)N[C@]2(C)O[C@@]3(O)[C@@H]4CCCN4C(=O)[C@H](Cc4ccccc4)N3C2=O)C=C2c3cccc4[nH]cc(c34)C[C@H]21` [ergotamine], the dependence entry in the series on migraine (extended use) is “cause dependence with extended use”.

`COc1cncnc1N1CCN(CCCc2c[nH]c3ccc(NS(C)(=O)=O)cc23)CC1C` (centres unmarked) [Example 68] showed an IC50 on 5-HT1D of 9.6 nM.

With `NCCc1c[nH]c2ccc(O)cc12` [serotonin creatinine sulfate], the “alleviation of reserpine-induced headache” value with migraine sufferers (slow I.V. injection) is reported as “This induced headache can be alleviated”.

As for `NCCc1c[nH]c2ccc(O)cc12` [serotonin], in the series with migraine sufferers (in vivo), the “effect in treating migraine attacks” value is on record as “effective in treating migraine attacks”; the “side-effects in migraine use” value is “restlessness, nausea, faintness, hyperpnea, facial flushing and parasthesias”.

Regarding `CNS(=O)(=O)Cc1ccc2[nH]cc(CCCN3CCN(c4ccncc4OC)CC3)c2c1` [Example 61, 4-(5-Methoxy-4-pyridinyl)-1-[3-[5-[[(methylamino)sulfonyl]methyl]-1H-indol-3-yl]propyl]piperazine hydrochloride], the IC50 on 5-HT1D is 1 nM.

As to `COc1cncnc1N1CCN(CCCc2c[nH]c3ccc(CS(N)(=O)=O)cc23)CC1` [Example 81], at 5-HT1D, the concentration for half-maximal inhibition (IC50) came to 7.9 nM.

At 5-HT1D, `COc1cncnc1N1CCN(CCCc2c[nH]c3ccc(N(C)S(C)(=O)=O)cc23)CC1C` (centres unmarked) [Example 70] registered an IC50 of 11 nM.

In turn, `COc1cncnc1N1CCN(CCCc2c[nH]c3ccc(CC(=O)NCc4ccccc4)cc23)CC1` [Example 84] gave an IC50 at 5-HT1D of 4.6 nM.

Consider `COc1cncnc1N1CCN(CCCc2c[nH]c3ccc(F)cc23)CC1` [Example 64], for which, on 5-HT1D, the IC50 came out at 1.5 nM.
